This is an account of results in patent publication US20120165310A1, “ETHER DERIVATIVES OF BICYCLIC HETEROARYLS” (NOVARTIS AG, priority 2009, published 2012).

In general, IC50 refers to the concentration needed to halve the response being measured. Low readings indicate higher potency, high ones lower potency.

The experiment deals with T1, IGF-1R (Homo sapiens, UniProt P08069).
T1 construct: expressed in transfected cells; host or cells: Hek293 (Hek293-IGF1R)
T1 sequence (P08069 31-1367): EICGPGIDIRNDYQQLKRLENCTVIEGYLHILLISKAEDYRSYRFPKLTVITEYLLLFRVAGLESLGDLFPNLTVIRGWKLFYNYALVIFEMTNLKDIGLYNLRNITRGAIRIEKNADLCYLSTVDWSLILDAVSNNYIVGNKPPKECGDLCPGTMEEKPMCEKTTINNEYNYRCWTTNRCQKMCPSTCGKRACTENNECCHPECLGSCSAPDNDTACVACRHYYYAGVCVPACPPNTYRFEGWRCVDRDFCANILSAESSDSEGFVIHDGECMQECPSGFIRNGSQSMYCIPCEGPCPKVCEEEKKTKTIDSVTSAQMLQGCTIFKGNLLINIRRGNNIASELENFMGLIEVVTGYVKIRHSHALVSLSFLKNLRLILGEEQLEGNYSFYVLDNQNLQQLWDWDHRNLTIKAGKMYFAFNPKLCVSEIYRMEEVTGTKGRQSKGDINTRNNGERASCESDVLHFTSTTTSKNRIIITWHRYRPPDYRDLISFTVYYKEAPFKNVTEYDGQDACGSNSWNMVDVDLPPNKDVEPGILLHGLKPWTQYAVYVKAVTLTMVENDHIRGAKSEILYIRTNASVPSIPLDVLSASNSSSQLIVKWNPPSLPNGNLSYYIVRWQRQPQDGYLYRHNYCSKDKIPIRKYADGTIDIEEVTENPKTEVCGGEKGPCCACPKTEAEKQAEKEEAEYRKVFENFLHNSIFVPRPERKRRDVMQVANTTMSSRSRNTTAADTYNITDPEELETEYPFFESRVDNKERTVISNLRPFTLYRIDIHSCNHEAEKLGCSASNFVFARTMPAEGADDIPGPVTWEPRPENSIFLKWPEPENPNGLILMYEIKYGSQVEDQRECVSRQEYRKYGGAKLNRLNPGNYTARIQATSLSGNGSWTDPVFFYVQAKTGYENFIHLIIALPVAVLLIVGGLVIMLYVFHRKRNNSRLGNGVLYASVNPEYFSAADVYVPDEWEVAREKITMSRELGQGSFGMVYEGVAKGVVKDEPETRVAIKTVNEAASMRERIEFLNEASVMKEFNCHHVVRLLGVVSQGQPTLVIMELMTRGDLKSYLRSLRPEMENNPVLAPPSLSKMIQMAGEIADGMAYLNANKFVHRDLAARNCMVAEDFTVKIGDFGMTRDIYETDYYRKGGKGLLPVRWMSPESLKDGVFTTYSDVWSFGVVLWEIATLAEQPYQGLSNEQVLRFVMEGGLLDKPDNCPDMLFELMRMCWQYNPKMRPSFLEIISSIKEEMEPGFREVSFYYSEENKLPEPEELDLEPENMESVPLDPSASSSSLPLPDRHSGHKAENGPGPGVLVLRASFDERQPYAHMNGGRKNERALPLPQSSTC
Nature of the experiment: Cellular IGF-1R assay: capture ELISA (MSD) of receptor phosphorylation in Hek293 cells. Format: cell-based. Particulars: Hek293-IGF1R cells, 1 h pre-incubation, 10 min IGF stimulation, pIGF1R capture ELISA. How it is done: (§1) In this assay the activity of the compounds of the invention against Insulin-like growth factor I (IGF-I) induced autophosphorylation of the IGF-IR was determined. The assay was conducted as follows: Compound-mediated inhibition of IGF1R and INSR phosphorylation in Hek293 cells transduced with the corresponding receptors was assessed in a capture ELISA format using the MSD (Meso Scale Discovery) platform. Briefly, 30,000 cells washed and diluted in starvation medium (DMEM high glucose supplemented with 0.1% BSA) were seeded in 90 μL per well into 96-well plates pre-coated with poly-D-lysine (0.1 mg/mL in PBS/O). After 24 h incubation at 37° C. and 5% CO2, dose-response effects were determined with 3-fold serial compound dilutions, starting at 10 μM. The final vehicle concentration is 0.1% DMSO in all wells. Following pre-incubation with compounds for 1 h, receptor phosphorylation was triggered by a 10 min exposure to 1.0 ng/μL IGF for Hek293-IGF1R cells, and 5.0 ng/μL insulin for Hek293-InsR cells. Cell lysis was achieved by addition of 80 μL MSD lysis buffer per aspirated well, incubation on ice for 20 min, and a freeze-thaw cycle. Target phosphorylation was then assessed by transferring volumes corresponding to approx. 6 μg Hek293-IGF1R or 0.6 μg Hek293-InsR lysates to MSD assay plates pre-coated with total-IGF1R or total-InsR Abs, respectively. […] Immune complexes were detected by a SULFO-Tag™-coupled anti-rabbit IgG antibody in the presence of 150 μL MSD read-buffer. Light emission at 620 nm triggered by application of electric current was recorded on a MSD Sectorlmager 6000. Acquired raw data (mean Ru-ECL units) were processed in an Excel analysis template. The plate blank (MSD lysis buffer) was subtracted from all data points. The effect of a particular test compound concentration on receptor phosphorylation was expressed relative to the window defined by ligand-stimulated vs unstimulated control cells (set as 100%). IC50 values [nM] were determined using 4-parametric curve-fitting (XLfit software, V4.3.2).
as §1, with “Compound-mediated” for “In this assay the activity of the compounds of the invention against Insulin-like growth factor I (IGF-I) induced autophosphorylation of the IGF-IR was determined. The assay was conducted as follows: Compound-mediated”, “cells trans-duced” for “cells transduced”, “receptors were” for “receptors was”, “concentration was” for “concentration is”, “for Hek293-IGF1 R” for “for Hek293-IGF1R”, “with total-IGF1 R” for “with total-IGF1R”
In the case of `NC[C@H]1C[C@@H](n2cc(-c3cccc(OCC45CCC(CC4)O5)c3)c3c(N)ncnc32)C1` (relative stereo) [Example 160, 7-[cis-3-aminomethyl-cyclobutyl]-5-[3-(7-oxa-bicyclo[2.2.1]hept-1-ylmethoxy)-phenyl]-7H-pyrrolo[2,3-d]pyrimidin-4-ylamine], the IC50 came to 24 nM. With `CS(=O)(=O)N1CCN([C@H]2C[C@@H](n3cc(-c4cccc(OCC56CCC(CC5)O6)c4)c4c(N)ncnc43)C2)CC1` (relative stereo) [Example 171, 7-[cis-3-(4-methanesulfonyl-piperazin-1-yl)-cyclobutyl]-5-[3-(7-oxa-bicyclo[2.2.1]hept-1-ylmethoxy)-phenyl]-7H-pyrrolo[2,3-d]pyrimidin-4-ylamine] the figure was 33 nM. The result for `Nc1ncnc2c1c(-c1cccc(OCC34CCC(CC3)O4)c1)cn2[C@H]1C[C@@H](N2CCN(CCO)CC2)C1` (relative stereo) [Example 172, 2-[4-(cis-3-{4-amino-5-[3-(7-oxa-bicyclo[2.2.1]hept-1-ylmethoxy)-phenyl]-pyrrolo[2,3-d]pyrimidin-7-yl}-cyclobutyl)-piperazin-1-yl]-ethanol] reads 21 nM; that for `CC(=O)N1CC2CC1CN2[C@H]1C[C@@H](n2cc(-c3cccc(OCC45CCC(CC4)O5)c3)c3c(N)ncnc32)C1` (relative stereo) [Example 173, 1-[5-(cis-3-{4-amino-5-[3-(7-oxa-bicyclo[2.2.1]hept-1-ylmethoxy)-phenyl]-pyrrolo[2,3-d]pyrimidin-7-yl}-cyclobutyl)-2,5-diaza-bicyclo[2.2.1]hept-2-yl]-ethanone], 182 nM. The compound `Nc1ncnc2c1c(-c1cccc(OCC34CCC(CC3)O4)c1)cn2[C@H]1C[C@@H](N2CC3CC2CN3CCO)C1` (relative stereo) [Example 174, 2-[5-(cis-3-{4-amino-5-[3-(7-oxa-bicyclo[2.2.1]hept-1-ylmethoxy)-phenyl]-pyrrolo[2,3-d]pyrimidin-7-yl}cyclobutyl)-2,5-diaza-bicyclo[2.2.1]hept-2-yl]-ethanol] showed an IC50 of 303 nM. With `Nc1ncnc2c1c(-c1cccc(OCC34CCC(CC3)O4)c1)cn2[C@H]1CC[C@H](N)CC1` (relative stereo) [Example 182, 7-(trans-4-Amino-cyclohexyl)-5-[3-(7-oxa-bicyclo[2.2.1]hept-1-ylmethoxy)-phenyl]-7H-pyrrolo[2,3-d]pyrimidin-4-ylamine] the figure was 211 nM. For `CN(C)[C@H]1CC[C@H](n2cc(-c3cccc(OCC45CCC(CC4)O5)c3)c3c(N)ncnc32)CC1` (relative stereo) [Example 183, 7-(trans-4-Dimethylamino-cyclohexyl)-5-[3-(7-oxa-bicyclo[2.2.1]hept-1-ylmethoxy)-phenyl]-7H-pyrrolo[2,3-d]pyrimidin-4-ylamine], half-maximal inhibition (IC50) required 88 nM. The result for `Nc1ncnc2c1c(-c1cccc(OCC34CCC(CC3)O4)c1)cn2[C@H]1C[C@@H](CN2CCC(O)CC2)C1` (relative stereo) [Example 184, 1-(cis-3-{4-Amino-5-[3-(7-oxa-bicyclo[2.2.1]hept-1-ylmethoxy)-phenyl]-pyrrolo[2,3-d]pyrimidin-7-yl}-cyclobutylmethyl)-piperidin-4-ol] reads 9 nM.

In turn, `Nc1ncnc2c1c(-c1cccc(OCC34CCC(CC3)O4)c1)cn2[C@H]1C[C@@H](N2CC(O)C2)C1` (relative stereo) [Example 191, 1-(cis-3-{4-Amino-5-[3-(7-oxa-bicyclo[2.2.1]hept-1-ylmethoxy)-phenyl]-pyrrolo[2,3-d]pyrimidin-7-yl}-cyclobutyl)-azetidin-3-ol] yielded an IC50 of 138 nM. For `CC(=O)NN[C@H]1C[C@@H](n2cc(-c3cccc(OCC45CCC(CC4)O5)c3)c3c(N)ncnc32)C1` (relative stereo) [Example 193, Acetic acid N′-(cis-3-{4-amino-5-[3-(7-oxa-bicyclo[2.2.1]hept-1-ylmethoxy)-phenyl]-pyrrolo[2,3-d]pyrimidin-7-yl}-cyclobutyl)-hydrazide], 112 nM corresponded to half-maximal inhibition (IC50). The IC50 values of the last two compounds are within 1.5-fold of each other. As for `Cc1cccc(NC[C@H]2C[C@@H](n3cc(-c4cccc(OCC56CCC(CC5)O6)c4)c4c(N)ncnc43)C2)n1` (relative stereo) [Example 194, 7-{cis-3-[(6-Methyl-pyridin-2-ylamino)-methyl]-cyclobutyl}-5-[3-(7-oxa-bicyclo[2.2.1]hept-1-ylmethoxy)-phenyl]-7H-pyrrolo[2,3-d]pyrimidin-4-ylamine], the IC50 was 83 nM. With `CN1CCN([C@H]2C[C@@H](n3cc(-c4cccc(OCC56CCC(CC5)O6)c4)c4c(N)ncnc43)C2)CC1=O` (relative stereo) [Example 195, cis-4-(3-{4-Amino-5-[3-(7-oxa-bicyclo[2.2.1]hept-1-ylmethoxy)-phenyl]-pyrrolo[2,3-d]pyrimidin-7-yl}-cyclobutyl)-1-methyl-piperazin-2-one] the figure was 385 nM. The result for `CN1CCN([C@H]2C[C@H](n3cc(-c4cccc(OCC56CCC(CC5)O6)c4)c4c(N)ncnc43)C2)CC1=O` (relative stereo) [Example 196, 4-(trans-3-{4-Amino-5-[3-(7-oxa-bicyclo[2.2.1]hept-1-ylmethoxy)-phenyl]-pyrrolo[2,3-d]pyrimidin-7-yl}cyclobutyl)-1-methyl-piperazin-2-one] reads 192 nM; that for `CN1CCN(C[C@H]2C[C@@H](n3cc(-c4cccc(OCC56CCC(CC5)O6)c4)c4c(N)ncnc43)C2)CC1=O` (relative stereo) [Example 210, 4-(cis-3-{4-Amino-5-[3-(7-oxa-bicyclo[2.2.1]hept-1-ylmethoxy)-phenyl]-pyrrolo[2,3-d]pyrimidin-7-yl}-cyclobutylmethyl)-1-methyl-piperazin-2-one], 115 to 194 nM. The result for `Nc1ncnc2c1c(-c1cccc(OCC34CCC(CC3)O4)c1)cn2[C@H]1C[C@@H](O)C1` (relative stereo) [Example 221, cis-3-{4-amino-5-[3-(7-oxa-bicyclo[2.2.1]hept-1-ylmethoxy)-phenyl]-pyrrolo[2,3-d]pyrimidin-7-yl}cyclobutanol] reads 411 nM. `CC(=O)N[C@H]1C[C@@H](n2cc(-c3cccc(OCC45CCC(CC4)O5)c3)c3c(N)ncnc32)C1` (relative stereo) [Example 223, N-(cis-3-{4-amino-5-[3-(7-oxa-bicyclo[2.2.1]hept-1-ylmethoxy)-phenyl]-pyrrolo[2,3-d]pyrimidin-7-yl}-cyclobutyl)-acetamide] had a half-maximal inhibitory concentration (IC50) of 308 nM. This IC50 and that of the compound before are within 1.5-fold of each other.

As for `Nc1ncnc2c1c(-c1cccc(OCC34CCC(CC3)O4)c1)cn2[C@H]1C[C@@H](N2CCS(=O)(=O)CC2)C1` (relative stereo) [Example 230, 7-[cis-3-(1,1-dioxo-thiomorpholin-4-yl)-cyclobutyl]-5-[3-(7-oxa-bicyclo[2.2.1]hept-1-ylmethoxy)-phenyl]-7H-pyrrolo[2,3-d]pyrimidin-4-ylamine], the IC50 was found to be 17 nM. Compared with the last compound, the IC50 is about 18-fold lower. The result for `Nc1ncnc2c1c(-c1cccc(OCC34CCC(CC3)O4)c1)cn2[C@H]1C[C@@H](N2CC[S+]([O-])CC2)C1` (relative stereo) [Example 232, 5-[3-(7-Oxa-bicyclo[2.2.1]hept-1-ylmethoxy)-phenyl]-7-[cis-3-(1-oxo-thiomorpholin-4-yl)-cyclobutyl]-7H-pyrrolo[2,3-d]pyrimidin-4-ylamine] reads 35 to 38 nM.
